{"source": "patent US20180153830A1", "about": "“SELECTIVE INHIBITORS OF UNDIFFERENTIATED CELLS” (Yissum Research Development Company of the Hebrew …, priority 2012, published 2018)", "key": {"[1]": {"test_system": "non-pluripotent cell types (BJ-fibroblasts, HeLa, HepG2 and Kelly cells)", "experiment": "Methylene blue viability of non-pluripotent cells in embryonic stem cell medium", "assay_type": "cell-based, human", "conditions": "20 μM, 72 hours", "procedure": "(§1) For the high-throughput screens, relative cell number was determined using a CellTiter-Glo® Luminescent Cell Viability Assay as described hereinabove. Otherwise, relative cell numbers were determined by fixating the cells with 0.5% glutardialdehyde and staining with methylene blue dissolved in 0.1 M boric acid (pH 8.5). Color extraction was performed using 0.1 M hydrochloric acid, and the staining (which is proportional to cell number) was quantified by measuring absorbance at a wavelength of 650 nm.\nIn order to ascertain that the selectivity of PluriSin cytotoxicity is cell type-dependent rather than cell medium-dependent, four non-pluripotent cell types (BJ-fibroblasts, HeLa, HepG2 and Kelly cells) were cultured in human embryonic stem cell medium and exposed to PluriSIn #1 for 72 hours. Cell viability was then determined by a methylene blue assay, as described hereinabove."}, "[2]": {"test_system": "caspase-3 in embryonic stem cells", "experiment": "Immunoblotting for caspase-3", "assay_type": "cell-based, human", "conditions": "20 μM", "procedure": "For immunoblotting, 10% polyacrylamide gel was used for protein separation and detection. The gel was transferred to a nitrocellulose membrane and antibody hybridization and chemiluminescence were performed according to standard procedures. The primary antibodies in this analysis were rabbit anti-phosphorylated-eIF2a (1:250, Cell Signaling Technology), rabbit anti caspase-3 (1:1,000, Cell Signaling Technology), mouse anti β-catenin (1:10,000, BD Biosciences) and mouse anti-α-tubulin (1:50,000, Sigma-Aldrich). Horseradish peroxidase-conjugated anti-rabbit and anti-mouse secondary antibodies were obtained from Jackson Immunoresearch Laboratories.\nThe finding of gene expression associated with apoptosis is consistent with previous reports that pluripotent cells are prone to apoptosis [Qin et al., Journal of Biological Chemistry 282:5842-5852 (2007); Momcilovic et al., PloS One 5:e13410 (2010)]. However, pluripotent cells have also been reported to be susceptible to other types of cell death, such as oncosis [Tan et al., Stem Cells 27:1792-1801 (2009)] and autophagy [Alexander et al., PNAS 108:15828-15833 (2011)]. An Annexin V-FITC detection assay and immunoblotting for caspase-3 (a hallmark executioner of apoptosis) were therefore used in order to confirm that the massive hPSC death induced by PluriSIn #1 is indeed apoptosis."}, "[3]": {"test_system": "protein synthesis in BJ fibroblasts", "experiment": "35S-Met metabolic labeling of protein synthesis, fibroblasts", "assay_type": "cell-based, human", "conditions": "12 hours, 20 μM", "procedure": "H9 embryonic stem cells were seeded in Matrigel™ pre-coated 6-well tissue culture plates at a density of 2×10^5 cells/well, and cultured using mTeSR1 defined medium. BJ fibroblasts were seeded in 6-well tissue culture plate at the same density, and cultured with DMEM supplemented with 10% FBS, penicillin (50 U/ml) and streptomycin (50 μg/ml). Cells were treated for 12 hours with either 20 μM PluriSIn #1 (isonicotinic acid N′-phenylhydrazide) or with 0.2% DMSO. Cells were then washed with PBS, and replenished with methionine-deficient medium for 1 hour. Metabolic labeling of the cells was then performed for 1 hour with 10 μCi of […] methionine in 1 ml/well, in the presence of 20 μM PluriSIn #1 or 0.2% DMSO. Cells were washed with PBS containing 10 mM methionine, and were then lysed in 0.4 ml of 30% ice-cold trichloroacetic acid (TCA) containing 10 mM methionine for 15 minutes. […] Total protein concentration was determined using a Bradford Protein Assay (Sigma-Aldrich), and the radioactivity measurements were normalized accordingly. […]\nThe similarity between PSIs and PluriSIn #1 and #6 is consistent with the fact that UPR can lead to translational attenuation. In order to confirm this link, the effect of PluriSIn #1 treatment on protein synthesis was determined. […]"}, "[4]": {"test_system": "OCT4-expressing CSES2-SO2/3 cells", "experiment": "Fluorescence microscopy imaging of OCT4 in mixed cell populations", "assay_type": "cell-based, human", "conditions": "48 hours, mixed cell population", "procedure": "High content imaging of CSES2-SO2/3 fluorescent cells (mCherry+ or EGFP+) was performed in black clear-bottom 384-well assay plates (Falcon BD), using the Opera high-content screen imaging platform (PerkinElmer). Otherwise, light and fluorescence imaging of all cells was performed in 24-well, 6-well or 10 cm CELLSTAR® plates (Greiner Bio-One), using an Olympus CellR imaging station. Light imaging of developing mouse embryos was performed in 35 mm culture dishes (Falcon BD), using an Olympus IX70 microscope.\nMixed cell populations were cultured in 6-well plates and exposed to PluriSIn #1 for 48 hours. The cells were then analyzed by FACS analysis, using staining for the pluripotent marker TRA-1-60, and by fluorescence microscopy imaging of OCT4, as described in the Materials and Methods section."}, "[5]": {"test_system": "normal (immortalized) BJ fibroblasts", "experiment": "Methylene blue viability, immortalized BJ fibroblasts", "assay_type": "cell-based, human", "conditions": "up to 100 μM, 72 hours, 2% fetal bovine serum", "procedure": "as §1\nIn one experiment, immortalized BJ fibroblasts served as differentiated cells and were compared with BJ fibroblasts induced to undergo cellular transformation, which served as their undifferentiated cancerous counterparts. […]\n(§2) The differentiated and undifferentiated cells were exposed to PluriSIn #1 at concentrations of up to 100 μM for 72 hours under low (2%) fetal bovine serum conditions. Their viability was then measured using a methylene blue viability assay, as described hereinabove."}, "[6]": {"test_system": "undifferentiated stem-like glioma cells (SLGCs)", "experiment": "Methylene blue viability, undifferentiated SLGCs", "assay_type": "cell-based", "conditions": "up to 100 μM, 72 hours, 2% fetal bovine serum", "procedure": "as §1\n(§3) In a second experiment, undifferentiated stem-like glioma cells (SLGCs) were compared with SLGCs differentiated by monolayer adhesion and exposure to 1 μM retinoic acid for one week, in accordance with procedures described by Campos et al. [Clinical Cancer Research 16:2715-2728 (2010)]. Differentiation of SLGCs is associated with a reduction in tumorigenicity [Campos et al., Clinical Cancer Research 16:2715-2728 (2010)].\nas §2"}, "differentiated SLGCs": {"test_system": "differentiated SLGCs", "experiment": "Methylene blue viability, differentiated SLGCs", "assay_type": "cell-based", "conditions": "up to 100 μM, 72 hours, 2% fetal bovine serum", "procedure": "as §1, §3, §2"}}, "data": [{"smiles": "O=C(NNc1ccccc1)c1ccncc1", "note": "[PluriSIn #1, isonicotinic acid N′-phenylhydrazide]", "values": [{"measurement": "viability of non-pluripotent cells cultured in embryonic stem cell medium", "setting": "[1]", "result": "no effect"}, {"measurement": "activation of caspase-3", "setting": "[2]", "result": "enhanced activation of caspase-3"}, {"measurement": "effect on protein synthesis, differentiated cells (fibroblasts)", "setting": "[3]", "result": "no effect"}, {"measurement": "elimination of OCT4-expressing cells", "setting": "[4]", "result": "eliminated almost all OCT4-expressing cells"}, {"measurement": "effect on normal (immortalized) BJ fibroblasts", "setting": "[5]", "result": "little effect"}, {"measurement": "cytotoxicity towards undifferentiated SLGC", "setting": "[6]", "result": "highly cytotoxic"}, {"measurement": "effect on differentiated SLGCs", "setting": "differentiated SLGCs", "result": "no apparent effect"}]}]}
